Series [1] deals with L. infantum LEM3323-cl4 MIL. Description: VL/CL panel, intracellular amastigotes. The class given is cell-based. Conditions: Leishmania infantum, read-out: IC-50 L. infantum LEM3323-cl4 MIL. As to the method:
(§1) For the antileishmania in vitro assays, 3×10^4 PMM/well were seeded in 96-well plates. After 24h, 5×10^5 amastigotes/well were added and incubated for 2h at 37°C. Next, the compounds in 4-fold serial dilutions were added and the plates were further incubated for 5 days (37°C, 5% CO2). Parasite burdens were assessed using an inverted microscope after Giemsa staining. The results were expressed as percent reduction in parasite burdens compared to negative control wells (100% growth) and IC50 values were determined. Values represent the geometric mean of at least two independent experiments. Miltefosine was used as the positive control in all plates.

For series [2], the system named is L. major MHOM/SA/85/JISH118. Description: VL/CL panel, intracellular amastigotes. Type of series: cell-based. Conditions: Leishmania major; average; read-out: IC-50 L. major MHOM/SA/85/JISH118. As to the method:
as §1

Series [3] relates to L. infantum MHOM/FR/96/LEM3323-cl4. Description: VL/CL panel, intracellular amastigotes. The class given is cell-based. To be noted: Leishmania infantum; average; read-out: IC-50 L. infantum MHOM/FR/96/LEM3323-cl4. As to the method: as §1
In series [4] the test system is L. braziliensis MHOM/BR/94/H3227. Briefly: VL/CL panel, intracellular amastigotes. Type of series: cell-based. To be noted: Leishmania braziliensis; average; read-out: IC-50 L. braziliensis MHOM/BR/94/H3227. As for the experimental part:
as §1

The subject of series [5] is L. tropica MHOM/AF/2015/HTD7. Description: VL/CL panel, intracellular amastigotes. The class given is cell-based. Conditions: Leishmania tropica; average; read-out: IC-50 L. tropica MHOM/AF/2015/HTD7. As for the experimental part: as §1
In series [6] the test system is L. panamensis MHOM/PA/71/LS94. Briefly: VL/CL panel, intracellular amastigotes. The class given is cell-based. To be noted: Leishmania panamensis; average; read-out: IC-50 L. panamensis MHOM/PA/71/LS94. As to the method:
as §1

In series [7] the test system is L. donovani MHOM/ NP/2003/ BPK282/0-cl4. Description: VL/CL panel, intracellular amastigotes. The class given is cell-based. To be noted: Leishmania donovani; average; read-out: IC-50 L. donovani MHOM/ NP/2003/ BPK282/0-cl4. As to the method:
as §1

The test system of series [8] is L. infantum LEM3323-cl4 PMM. Description: VL/CL panel, intracellular amastigotes. Conditions: Leishmania infantum, read-out: IC-50 L. infantum LEM3323-cl4 PMM. The class given is cell-based. As for the experimental part:
as §1

The test system of series [9] is L. guyanensis MHOM/PE/02/PER 054/0. Briefly: VL/CL panel, intracellular amastigotes. Type of series: cell-based. Conditions: Leishmania guyanensis; average; read-out: IC-50 L. guyanensis MHOM/PE/02/PER 054/0. As for the experimental part:
as §1

Series [10] relates to L. infantum (MHOM/BR/2005/NLC) strain expressing luciferase. Type of series: in vivo, Leishmania infantum. To be noted: 25 mg/kg/day oral. As for the experimental part:
Groups of female BALB/c mice (n = 5) were infected with 10^8 stationary phase promastigotes of L. infantum chagasi-LUC in a final volume of 100 μL by the intraperitoneal route. At day 14 post-infection, groups were orally treated for 5 days with either drug vehicle only (10% ethanol, 40% PEG400 and 0.4% Tween80 in saline buffer—pH adjusted to 9), miltefosine (40 mg/kg QD) or with compounds 29 and 39 (25 mg/kg QD). Light emission in the ventral abdominal cavity of infected animals was recorded by bioimaging (IVIS Spectrum, Caliper Life Sciences) on 14, 19- and 24-days post-infection. Before imaging, mice received 75 mg/kg VivoGlo™ Luciferin (Promega Corporation) (i.p.) and were anesthetized in a 2% isoflurane atmosphere (Cristália). Animals were then transferred to the imaging chamber and kept in a 2% isoflurane atmosphere. Emitted photons were collected using the high resolution (medium binning) mode. Total photon emission from a defined region of interest (ROI) corresponding to the whole abdominal area was registered. The same ROI was applied to all animals in any given group. Images were acquired 15 min after luciferin injection. Total photon emission from each mouse was quantified with Living Image software version 4.3.1 (Caliper Life Sciences), and results were expressed as the number of photons/s/ROI subtracted from the corresponding ROI in uninfected animals. The detected signal was presented as a pseudocolor image representing light intensity (red = most intense and blue = least intense) and superimposed on the gray scale reference image.

Series [11] relates to panel of VL and CL strains (intracellular amastigotes). Briefly: Panel of VL and CL strains. The class given is cell-based, Leishmania spp. To be noted: Leishmania, L. major JISH118 and L. braziliensis H3227 excepted, read-out: IC50 values across panel of VL and CL strains. As for the experimental part:
The only two clear exceptions were L. major (MHOM/SA/85/JISH118) and L. braziliensis (MHOM/BR/94/H3227), where a potency drop was evident (see S1 Data for the complete dataset).
as §1

Series [12] is described as follows: Mouse single-dose pharmacokinetics. The class given is in vivo. Conditions: female, BALB/c, plasma, single oral dose 10 mg/kg.

On to `Cn1nccc1C(=O)Nc1nc2ccc(C#N)cc2n1CC(C)(C)C` [Compound 29, O=C(Nc1n(CC(C)(C)C)c(c2n1)cc(C#N)cc2)c3n(C)ncc3], for which the IC50 is 2160 nM in series [1]; 8640 nM in [2]; 2810 nM in series [3]; 24800 nM in series [4]; 2850 nM in series [5]; 630 nM in series [6]. The IC50 in series [7] was 300 nM; in series [8] it was 1620 nM; in series [9], 550 nM; in series [11] it was 110 to 5900 nM. The “toxicity in infected mice” value in [10] is “one animal was euthanized due to severe clinical signs of distress”. For the same molecule, in [10] (5 days, end of treatment or washout), the “parasite load (bioluminescence)” value was “no decrease in parasite load”. Further, the AUC(0-t) in series [12] was determined as 8160 ng·h/mL. Further, in series [12], the Cmax turned out to be 1000 ng/mL. The bioavailability in series [12] worked out at 72%. Further, the half-life in [12] is 7.9 h.
With `Cn1nc(C(F)(F)F)cc1C(=O)Nc1nc2ccc(C#N)cc2n1CC(F)(F)F` [Compound 39, O=C(c1cc(C(F)(F)F)nn1C)Nc2nc(ccc(C#N)c3)c3n2CC(F)(F)F], the IC50 in series [1] is 4160 nM; in series [2] it was 17000 nM; in series [3], 3010 nM; in [5] it was 5900 nM; in series [6], 1220 nM; in series [7] it was 100 nM. Besides, the IC50 is 3210 nM in series [8], 1080 nM in series [9] and 110 to 5900 nM in series [11]. Further, the “toxicity in infected mice” value in [10] is on record as “severe toxic effects”.

In general, AUC(0-t) refers to the area under the concentration-time curve up to a stated or last time point. Usually Cmax stands for the maximum level reached in the sampled fluid or tissue. The bioavailability is dose-corrected exposure relative to a reference, in per cent. One may read the half-life as the time needed for the level to fall by half in the phase considered. High values mean slow loss, low ones fast loss.

The values above are taken from article PMC7932521, “2-aminobenzimidazoles for leishmaniasis: From initial hit discovery to in vivo profiling” (PLoS Neglected Tropical Diseases, 2021).
